Results reported in BigSolDB 2.1.

Work on O=S(=O)([O-])Oc1ccc(C(c2ccc(OS(=O)(=O)[O-])cc2)c2ccccn2)cc1.[Na+].[Na+] yielded a solubility (mole fraction) (in DMF, 298.15 K) of 0.0269, a solubility (mole fraction) (in DMF, 303.15 K) of 0.0321 and a solubility (mole fraction) (in DMF, 308.15 K) of 0.0387. It also gave a solubility (mole fraction) (in DMF, 313.15 K) of 0.0463, a solubility (mole fraction) (in DMF, 318.15 K) of 0.0561 and a solubility (mole fraction) (in DMSO, 298.15 K) of 0.0049. It also gave a solubility (mole fraction) (in DMSO, 303.15 K) of 0.0058, a solubility (mole fraction) (in DMSO, 308.15 K) of 0.0069 and a solubility (mole fraction) (in DMSO, 313.15 K) of 0.0083. For the same compound, the solubility (mole fraction) (in DMSO, 318.15 K) was 0.0099, the solubility (mole fraction) (in acetic acid, 298.15 K) was 0.0014 and the solubility (mole fraction) (in acetic acid, 303.15 K) was 0.0019. It also gave a solubility (mole fraction) (in acetic acid, 308.15 K) of 0.0025, a solubility (mole fraction) (in acetic acid, 313.15 K) of 0.0034 and a solubility (mole fraction) (in acetic acid, 318.15 K) of 0.0046. It also gave a solubility (mole fraction) (in acetonitrile, 298.15 K) of 0.0001, a solubility (mole fraction) (in acetonitrile, 303.15 K) of 0.0001 and a solubility (mole fraction) (in acetonitrile, 308.15 K) of 0.0003. It also gave a solubility (mole fraction) (in acetonitrile, 313.15 K) of 0.0005, a solubility (mole fraction) (in acetonitrile, 318.15 K) of 0.001 and a solubility (mole fraction) (in ethanol, 298.15 K) of 0.0011. For the same compound, the solubility (mole fraction) (in ethanol, 303.15 K) was 0.0015, the solubility (mole fraction) (in ethanol, 308.15 K) was 0.0021 and the solubility (mole fraction) (in ethanol, 313.15 K) was 0.003. For the same compound, the solubility (mole fraction) (in ethanol, 318.15 K) was 0.0041, the solubility (mole fraction) (in methanol, 298.15 K) was 0.0096 and the solubility (mole fraction) (in methanol, 303.15 K) was 0.0116. It also gave a solubility (mole fraction) (in methanol, 308.15 K) of 0.0142, a solubility (mole fraction) (in methanol, 313.15 K) of 0.0178 and a solubility (mole fraction) (in methanol, 318.15 K) of 0.0213. It also gave a solubility (mole fraction) (in n-butanol, 298.15 K) of 0.0001, a solubility (mole fraction) (in n-butanol, 303.15 K) of 0.0002 and a solubility (mole fraction) (in n-butanol, 308.15 K) of 0.0005. The solubility (mole fraction) (in n-butanol, 313.15 K) was 0.0011, the solubility (mole fraction) (in n-butanol, 318.15 K) was 0.0022 and the solubility (mole fraction) (in n-propanol, 298.15 K) was 0.0002. The solubility (mole fraction) (in n-propanol, 303.15 K) was 0.0004, the solubility (mole fraction) (in n-propanol, 308.15 K) was 0.0007 and the solubility (mole fraction) (in n-propanol, 313.15 K) was 0.0014. It also gave a solubility (mole fraction) (in n-propanol, 318.15 K) of 0.0028, a solubility (mole fraction) (in water, 298.15 K) of 0.0215 and a solubility (mole fraction) (in water, 303.15 K) of 0.0252. For the same compound, the solubility (mole fraction) (in water, 308.15 K) was 0.0299, the solubility (mole fraction) (in water, 313.15 K) was 0.0347 and the solubility (mole fraction) (in water, 318.15 K) was 0.0398.
